Laboratory results as given in PubChem BioAssay (NCI).
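Results reflect a 48-hour exposure of cells in 96-well plates to compound at five concentrations. The concentration for full growth arrest is given as TGI.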

Assays:
Assay in all cases: NCI-60 cell line screen, 48 h
NCI/ADR-RES ovarian = tested on: NCI/ADR-RES ovarian
HOP-92 NSCLC = tested on: HOP-92 NSCLC
HCT-116 colon = tested on: HCT-116 colon
HCT-15 colon = tested on: HCT-15 colon
MDA-N = tested on: MDA-N
A549 NSCLC = tested on: A549 NSCLC
OVCAR-4 ovarian = tested on: OVCAR-4 ovarian
SNB-75 CNS = tested on: SNB-75 CNS
SK-MEL-5 melanoma = tested on: SK-MEL-5 melanoma
DU-145 prostate = tested on: DU-145 prostate
SK-MEL-28 melanoma = tested on: SK-MEL-28 melanoma
MDA-MB-435 = tested on: MDA-MB-435
BT-549 breast = tested on: BT-549 breast
MDA-MB-231 breast = tested on: MDA-MB-231 breast
TK-10 renal = tested on: TK-10 renal
OVCAR-8 ovarian = tested on: OVCAR-8 ovarian
T-47D breast = tested on: T-47D breast
ACHN renal = tested on: ACHN renal
NCI-H522 lung = tested on: NCI-H522 lung
COLO 205 colon = tested on: COLO 205 colon
A498 renal = tested on: A498 renal
K-562 leukemia = tested on: K-562 leukemia
SF-268 CNS = tested on: SF-268 CNS
HCC-2998 colon = tested on: HCC-2998 colon
NCI-H226 lung = tested on: NCI-H226 lung
UACC-62 melanoma = tested on: UACC-62 melanoma
LOX IMVI melanoma = tested on: LOX IMVI melanoma
UACC-257 melanoma = tested on: UACC-257 melanoma
NCI-H460 lung = tested on: NCI-H460 lung
CAKI-1 renal = tested on: CAKI-1 renal
SK-MEL-2 melanoma = tested on: SK-MEL-2 melanoma
RPMI-8226 leukemia = tested on: RPMI-8226 leukemia
NCI-H23 lung = tested on: NCI-H23 lung
SN12C renal = tested on: SN12C renal
HS 578T breast = tested on: HS 578T breast
U251 CNS = tested on: U251 CNS
KM12 colon = tested on: KM12 colon
UO-31 renal = tested on: UO-31 renal
SNB-19 CNS = tested on: SNB-19 CNS
PC-3 prostate = tested on: PC-3 prostate
SW-620 colon = tested on: SW-620 colon
786-0 renal = tested on: 786-0 renal
HT29 colon = tested on: HT29 colon
HL-60(TB) leukemia = tested on: HL-60(TB) leukemia
MALME-3M melanoma = tested on: MALME-3M melanoma
SF-539 CNS = tested on: SF-539 CNS
EKVX NSCLC = tested on: EKVX NSCLC
SK-OV-3 ovarian = tested on: SK-OV-3 ovarian
SR leukemia = tested on: SR leukemia
SF-295 CNS = tested on: SF-295 CNS
RXF 393 renal = tested on: RXF 393 renal
CCRF-CEM leukemia = tested on: CCRF-CEM leukemia
MOLT-4 leukemia = tested on: MOLT-4 leukemia
HOP-62 NSCLC = tested on: HOP-62 NSCLC
IGROV1 ovarian = tested on: IGROV1 ovarian
M14 melanoma = tested on: M14 melanoma
OVCAR-3 ovarian = tested on: OVCAR-3 ovarian
OVCAR-5 ovarian = tested on: OVCAR-5 ovarian

Question: For `COc1cc(OC)cc(-n2c(N)c(-c3nc4ccccc4n3C)c3ccc([N+](=O)[O-])cc3c2=O)c1`, which TGI (NCI/ADR-RES ovarian) is on record?
Answer: > 100 µM

Question: And the TGI (HOP-92 NSCLC)?
Answer: 68 µM

Question: What about the TGI (HCT-116 colon) of the same compound?
Answer: > 100 µM

Question: What about the TGI (HCT-15 colon) of the same compound?
Answer: > 100 µM

Question: What about the TGI (MDA-N) of the same compound?
Answer: > 100 µM

Question: And the TGI (A549 NSCLC)?
Answer: > 100 µM

Question: What about the TGI (OVCAR-4 ovarian) of the same compound?
Answer: 88.4 µM

Question: What about the TGI (SNB-75 CNS) of the same compound?
Answer: 63.9 µM

Question: And the TGI (SK-MEL-5 melanoma)?
Answer: > 100 µM

Question: What about the TGI (DU-145 prostate) of the same compound?
Answer: > 100 µM

Question: What about the TGI (SK-MEL-28 melanoma) of the same compound?
Answer: > 100 µM

Question: What about the TGI (MDA-MB-435) of the same compound?
Answer: > 100 µM

Question: And the TGI (BT-549 breast)?
Answer: > 100 µM

Question: And the TGI (MDA-MB-231 breast)?
Answer: > 100 µM

Question: And the TGI (TK-10 renal)?
Answer: > 100 µM

Question: And the TGI (OVCAR-8 ovarian)?
Answer: > 100 µM

Question: What about the TGI (T-47D breast) of the same compound?
Answer: > 100 µM

Question: And the TGI (ACHN renal)?
Answer: > 100 µM

Question: What about the TGI (NCI-H522 lung) of the same compound?
Answer: > 100 µM

Question: And the TGI (COLO 205 colon)?
Answer: > 100 µM

Question: What about the TGI (A498 renal) of the same compound?
Answer: > 100 µM

Question: What about the TGI (K-562 leukemia) of the same compound?
Answer: > 100 µM

Question: And the TGI (SF-268 CNS)?
Answer: > 100 µM

Question: And the TGI (HCC-2998 colon)?
Answer: > 100 µM

Question: What about the TGI (NCI-H226 lung) of the same compound?
Answer: > 100 µM

Question: And the TGI (UACC-62 melanoma)?
Answer: > 100 µM

Question: What about the TGI (LOX IMVI melanoma) of the same compound?
Answer: > 100 µM

Question: What about the TGI (UACC-257 melanoma) of the same compound?
Answer: > 100 µM

Question: And the TGI (NCI-H460 lung)?
Answer: > 100 µM

Question: What about the TGI (CAKI-1 renal) of the same compound?
Answer: > 100 µM

Question: And the TGI (SK-MEL-2 melanoma)?
Answer: > 100 µM

Question: What about the TGI (RPMI-8226 leukemia) of the same compound?
Answer: > 100 µM

Question: And the TGI (NCI-H23 lung)?
Answer: > 100 µM

Question: What about the TGI (SN12C renal) of the same compound?
Answer: > 100 µM

Question: And the TGI (HS 578T breast)?
Answer: 83.3 µM

Question: And the TGI (U251 CNS)?
Answer: > 100 µM

Question: What about the TGI (KM12 colon) of the same compound?
Answer: > 100 µM

Question: And the TGI (UO-31 renal)?
Answer: > 100 µM

Question: And the TGI (SNB-19 CNS)?
Answer: > 100 µM

Question: And the TGI (PC-3 prostate)?
Answer: > 100 µM

Question: And the TGI (SW-620 colon)?
Answer: > 100 µM

Question: And the TGI (786-0 renal)?
Answer: > 100 µM

Question: And the TGI (HT29 colon)?
Answer: > 100 µM

Question: Which TGI (NCI/ADR-RES ovarian) does the source give for `CSc1nc(C#N)c(N)n1C` here?
Answer: > 100 µM

Question: And the TGI (HOP-92 NSCLC)?
Answer: > 100 µM

Question: And the TGI (HCT-116 colon)?
Answer: > 100 µM

Question: What about the TGI (HCT-15 colon) of the same compound?
Answer: > 100 µM

Question: And the TGI (MDA-N)?
Answer: > 100 µM

Question: What about the TGI (A549 NSCLC) of the same compound?
Answer: > 100 µM

Question: And the TGI (OVCAR-4 ovarian)?
Answer: > 100 µM

Question: And the TGI (HL-60(TB) leukemia)?
Answer: > 100 µM

Question: And the TGI (SK-MEL-5 melanoma)?
Answer: > 100 µM

Question: And the TGI (DU-145 prostate)?
Answer: > 100 µM

Question: And the TGI (SK-MEL-28 melanoma)?
Answer: > 100 µM

Question: What about the TGI (MALME-3M melanoma) of the same compound?
Answer: > 100 µM

Question: What about the TGI (SF-539 CNS) of the same compound?
Answer: > 100 µM

Question: And the TGI (MDA-MB-435)?
Answer: > 100 µM

Question: What about the TGI (EKVX NSCLC) of the same compound?
Answer: > 100 µM

Question: What about the TGI (BT-549 breast) of the same compound?
Answer: > 100 µM

Question: What about the TGI (MDA-MB-231 breast) of the same compound?
Answer: > 100 µM

Question: And the TGI (TK-10 renal)?
Answer: > 100 µM

Question: And the TGI (SK-OV-3 ovarian)?
Answer: > 100 µM

Question: What about the TGI (OVCAR-8 ovarian) of the same compound?
Answer: > 100 µM

Question: What about the TGI (T-47D breast) of the same compound?
Answer: > 100 µM

Question: What about the TGI (ACHN renal) of the same compound?
Answer: > 100 µM

Question: And the TGI (NCI-H522 lung)?
Answer: > 100 µM

Question: What about the TGI (COLO 205 colon) of the same compound?
Answer: > 100 µM

Question: What about the TGI (A498 renal) of the same compound?
Answer: > 100 µM

Question: What about the TGI (K-562 leukemia) of the same compound?
Answer: > 100 µM

Question: What about the TGI (SF-268 CNS) of the same compound?
Answer: > 100 µM

Question: What about the TGI (SR leukemia) of the same compound?
Answer: > 100 µM

Question: And the TGI (NCI-H226 lung)?
Answer: > 100 µM

Question: And the TGI (UACC-62 melanoma)?
Answer: > 100 µM

Question: And the TGI (LOX IMVI melanoma)?
Answer: > 100 µM

Question: What about the TGI (UACC-257 melanoma) of the same compound?
Answer: > 100 µM

Question: What about the TGI (SF-295 CNS) of the same compound?
Answer: > 100 µM

Question: What about the TGI (RXF 393 renal) of the same compound?
Answer: > 100 µM

Question: What about the TGI (CCRF-CEM leukemia) of the same compound?
Answer: > 100 µM

Question: What about the TGI (NCI-H460 lung) of the same compound?
Answer: > 100 µM

Question: And the TGI (MOLT-4 leukemia)?
Answer: > 100 µM

Question: What about the TGI (CAKI-1 renal) of the same compound?
Answer: > 100 µM

Question: What about the TGI (SK-MEL-2 melanoma) of the same compound?
Answer: > 100 µM

Question: And the TGI (RPMI-8226 leukemia)?
Answer: > 100 µM

Question: What about the TGI (NCI-H23 lung) of the same compound?
Answer: > 100 µM

Question: What about the TGI (SN12C renal) of the same compound?
Answer: > 100 µM

Question: And the TGI (HS 578T breast)?
Answer: > 100 µM

Question: What about the TGI (HOP-62 NSCLC) of the same compound?
Answer: > 100 µM

Question: And the TGI (U251 CNS)?
Answer: > 100 µM

Question: And the TGI (KM12 colon)?
Answer: > 100 µM

Question: What about the TGI (UO-31 renal) of the same compound?
Answer: > 100 µM

Question: And the TGI (IGROV1 ovarian)?
Answer: > 100 µM

Question: What about the TGI (SNB-19 CNS) of the same compound?
Answer: > 100 µM

Question: What about the TGI (M14 melanoma) of the same compound?
Answer: > 100 µM

Question: And the TGI (PC-3 prostate)?
Answer: > 100 µM

Question: And the TGI (SW-620 colon)?
Answer: > 100 µM

Question: What about the TGI (786-0 renal) of the same compound?
Answer: > 100 µM

Question: What about the TGI (OVCAR-3 ovarian) of the same compound?
Answer: > 100 µM

Question: And the TGI (OVCAR-5 ovarian)?
Answer: > 100 µM
